Reference: patent US4163058A, “Derivatives of 5,5-diphenylhydantoin exhibiting enhanced solubility and the therapeutic use thereof” (INTERX Research Corporation, priority 1977, dated 1979)
Like-named read-outs stand apart in the source and are kept apart here.

Columns and labels:
[1] = aqueous solubility (compound added in increments to water until solubility was determined); type: physicochemical
Description: The compound was added in increments to water until solubility was determined.

[2] = in vivo, iv; cited from earlier work
[3] = in vivo; cited from earlier work
[4] = oral, sodium salt; due to alkalinity of the dosage form; cited from earlier work
[5] = aqueous; comparison value for the parent; cited from earlier work
[6] = 37° C.; cited from earlier work
[7] = cited from earlier work

CN(C)CC(=O)OCN1C(=O)NC(c2ccccc2)(c2ccccc2)C1=O [3-(N,N-dimethylglycyloxymethyl)diphenylhydantoin methanesulfonate]
solubility ([1]; in water): > 100 mg/mL
increase in aqueous solubility over diphenylhydantoin ([1]; versus diphenylhydantoin per se): ~5,000 fold

O=C1NC(=O)C(c2ccccc2)(c2ccccc2)N1.[Na]
precipitation and blood levels [2]: frequently leads to precipitation of 5,5-diphenylhydantoin as well as erractic blood levels
precipitation at the injection site and release [3]: precipitate 5,5-diphenylhydantoin at the injection site leading to delayed and erractic 5,5-diphenylhydantoin release
gastric irritation [4]: frequently causes gastric irritation

O=C1NC(=O)C(c2ccccc2)(c2ccccc2)N1 [5,5-diphenylhydantoin]
solubility of the parent specie [5]: less than 0.02 mg/ml
solubility [6]: less than 2 mg. in 100 ml
release patterns ([7]; both in vitro and in vivo): often produces unpredictable and erractic release patterns
bioavailability ([7]; per se as well as from pharmaceutical dosage forms): low bioavailability
